The results in this text go back to article PMC7570662, “In Vivo Pharmacokinetic Analysis Utilizing Non-Targeted and Targeted Mass Spectrometry and In Vitro Assay against Transient Receptor Potential Channels of Maobushisaishinto and Its Constituent Asiasari Radix” (Molecules, 2020).

Structures are written as SMILES.

Type in all cases: cell-based
For experiment [1], the target named is T1, human TRPM8 (Homo sapiens, UniProt Q7Z2W7).
T1 construct: Each full-length human TRPA1, TRPV1, TRPV4, and TRPM8 coding regions were introduced into a pcDNA4/TO vector; expressed in transfected cells; host or cells: T-REx-293 cells (tetracycline-induced, pcDNA4/TO vector)
The experiment is described as follows: Ca2+ influx assay in TRPM8-expressing T-REx-293 cells. The following applies: 10 µmol/L test compound, relative to 20 µmol/L icilin; for activation at 10 µM: T-REx-293, read-out: % of Activation Compared to Positive Control against Each Subfamily of TRP Channel TRPM8. The procedure:
(§1) Each full-length human TRPA1, TRPV1, TRPV4, and TRPM8 coding regions were introduced into a pcDNA4/TO vector (Thermo Fisher Scientific, Waltham, MA, USA) and transfected into T-REx-293 cells (Thermo Fisher Scientific) to obtain stable cell lines expressing human TRPA1, TRPV1, TRPV4, and TRPM8. Cells were cultured in DMEM with 10% FBS, 4 mmol/L L-glutamine, and penicillin/streptomycin.
(§2) Cells were suspended in medium with 1 µg/mL tetracycline and seeded in poly-D-lysine coated 96-well plate at 2.5 × 10^4 cells/well. After overnight culture, the cells were used for Ca^2+ influx assay.
(§3) The Ca^2+ influx assay was performed using a FLIPR Calcium 5 Assay Kit (Molecular Devices, Sunnyvale, CA, USA) according to previously reported methods with minor modifications. In brief, cells were incubated with 80 µL Ca^2+-chelating dye dissolved in assay buffer at pH 7.4 (Hanks’ Balanced Salt Solution containing 20 mmol/L of N-2-hydroxyethylpiperazine-N’-2-ethanesulfonic acid) at room temperature for 30 min. The plates were assayed using a FlexStation 3 Microplate Reader (Molecular Devices). The fluorescence intensity was traced entirely for 80 s. The baseline of fluorescence was measured for 20 s before adding 20 µL of test compound (final concentration, 10 µmol/L). The response was expressed as percentage activation using the relative fluorescence units (RFU) (% activation = 100 × ((RFUmax − RFUbaseline)/RFUbaseline) − 100). Furthermore, the activities of each test compound against several subfamilies of TRP channels were represented as the relative enhancement of Ca^2+ influx of each positive control, indicated as follows: 20 µmol/L of allyl isothiocyanate (an agonist of TRPA1), 2 µmol/L of capsaicin (an agonist of TRPV1), 4 µmol/L of GSK1016790A (an agonist of TRPV4), and 20 µmol/L of icilin (an agonist of TRPM8). The dose–response curve was fitted to the sigmoidal dose-response equation (top, the max response of each compound), and EC50 values were calculated using GraphPad Prism 7 software (GraphPad, San Diego, CA, USA).

Experiment [2] has as its target T2, human TRPV4 (Homo sapiens, UniProt Q9HBA0).
T2 construct: Each full-length human TRPA1, TRPV1, TRPV4, and TRPM8 coding regions were introduced into a pcDNA4/TO vector; expressed in transfected cells; host or cells: T-REx-293 cells (tetracycline-induced, pcDNA4/TO vector)
Description: Ca2+ influx assay in TRPV4-expressing T-REx-293 cells. The following applies: 10 µmol/L test compound, relative to 4 µmol/L GSK1016790A; for activation at 10 µM: T-REx-293, read-out: % of Activation Compared to Positive Control against Each Subfamily of TRP Channel TRPV4. The procedure:
as §1, §2, §3

In experiment [3] the target is T3, human TRPV1 (Homo sapiens, UniProt Q8NER1).
T3 construct: Each full-length human TRPA1, TRPV1, TRPV4, and TRPM8 coding regions were introduced into a pcDNA4/TO vector; expressed in transfected cells; host or cells: T-REx-293 cells (tetracycline-induced, pcDNA4/TO vector)
Description: Ca2+ influx assay in TRPV1-expressing T-REx-293 cells. The following applies: 10 µmol/L test compound, relative to 2 µmol/L capsaicin; for activation at 10 µM: T-REx-293, read-out: % of Activation Compared to Positive Control against Each Subfamily of TRP Channel TRPV1. The procedure:
as §1, §2, §3

For experiment [4], the target named is T4, human TRPA1 (Homo sapiens, UniProt O75762).
T4 construct: Each full-length human TRPA1, TRPV1, TRPV4, and TRPM8 coding regions were introduced into a pcDNA4/TO vector; expressed in transfected cells; host or cells: T-REx-293 cells (tetracycline-induced, pcDNA4/TO vector)
Description: Ca2+ influx assay in TRPA1-expressing T-REx-293 cells. The following applies: 10 µmol/L test compound, relative to 20 µmol/L allyl isothiocyanate; for activation at 10 µM: T-REx-293, read-out: % of Activation Compared to Positive Control against Each Subfamily of TRP Channel TRPA1. The procedure: as §1, §2, §3

T4 sequence (O75762 whole entry): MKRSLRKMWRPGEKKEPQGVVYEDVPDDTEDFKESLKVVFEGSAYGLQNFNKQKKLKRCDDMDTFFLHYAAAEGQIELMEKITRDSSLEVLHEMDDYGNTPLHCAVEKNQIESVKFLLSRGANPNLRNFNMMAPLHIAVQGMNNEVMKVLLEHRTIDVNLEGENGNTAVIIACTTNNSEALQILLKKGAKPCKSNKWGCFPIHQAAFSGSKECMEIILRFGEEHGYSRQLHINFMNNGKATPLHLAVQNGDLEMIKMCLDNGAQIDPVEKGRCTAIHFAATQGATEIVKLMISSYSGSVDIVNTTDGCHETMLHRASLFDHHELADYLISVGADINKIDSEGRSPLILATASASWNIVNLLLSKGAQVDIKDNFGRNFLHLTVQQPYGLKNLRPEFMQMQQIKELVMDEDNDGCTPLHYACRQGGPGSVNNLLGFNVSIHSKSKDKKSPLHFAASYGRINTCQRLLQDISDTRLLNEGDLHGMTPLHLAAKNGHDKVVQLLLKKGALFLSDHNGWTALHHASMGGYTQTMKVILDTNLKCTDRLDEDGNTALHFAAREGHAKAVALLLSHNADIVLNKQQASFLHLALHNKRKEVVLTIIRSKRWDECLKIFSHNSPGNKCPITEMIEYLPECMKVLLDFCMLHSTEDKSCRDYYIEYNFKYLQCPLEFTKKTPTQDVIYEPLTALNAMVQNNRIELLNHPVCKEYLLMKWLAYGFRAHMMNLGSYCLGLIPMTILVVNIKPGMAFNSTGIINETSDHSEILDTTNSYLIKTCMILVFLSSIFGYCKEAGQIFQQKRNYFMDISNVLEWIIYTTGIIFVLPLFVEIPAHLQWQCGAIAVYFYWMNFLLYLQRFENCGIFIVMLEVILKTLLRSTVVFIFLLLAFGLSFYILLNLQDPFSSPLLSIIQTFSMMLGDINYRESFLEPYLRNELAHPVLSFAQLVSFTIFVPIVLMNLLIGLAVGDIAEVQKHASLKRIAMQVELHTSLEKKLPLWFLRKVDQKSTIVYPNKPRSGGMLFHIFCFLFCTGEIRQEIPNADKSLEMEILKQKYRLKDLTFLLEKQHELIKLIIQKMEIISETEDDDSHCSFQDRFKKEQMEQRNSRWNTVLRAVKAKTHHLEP
T2 sequence (Q9HBA0 whole entry): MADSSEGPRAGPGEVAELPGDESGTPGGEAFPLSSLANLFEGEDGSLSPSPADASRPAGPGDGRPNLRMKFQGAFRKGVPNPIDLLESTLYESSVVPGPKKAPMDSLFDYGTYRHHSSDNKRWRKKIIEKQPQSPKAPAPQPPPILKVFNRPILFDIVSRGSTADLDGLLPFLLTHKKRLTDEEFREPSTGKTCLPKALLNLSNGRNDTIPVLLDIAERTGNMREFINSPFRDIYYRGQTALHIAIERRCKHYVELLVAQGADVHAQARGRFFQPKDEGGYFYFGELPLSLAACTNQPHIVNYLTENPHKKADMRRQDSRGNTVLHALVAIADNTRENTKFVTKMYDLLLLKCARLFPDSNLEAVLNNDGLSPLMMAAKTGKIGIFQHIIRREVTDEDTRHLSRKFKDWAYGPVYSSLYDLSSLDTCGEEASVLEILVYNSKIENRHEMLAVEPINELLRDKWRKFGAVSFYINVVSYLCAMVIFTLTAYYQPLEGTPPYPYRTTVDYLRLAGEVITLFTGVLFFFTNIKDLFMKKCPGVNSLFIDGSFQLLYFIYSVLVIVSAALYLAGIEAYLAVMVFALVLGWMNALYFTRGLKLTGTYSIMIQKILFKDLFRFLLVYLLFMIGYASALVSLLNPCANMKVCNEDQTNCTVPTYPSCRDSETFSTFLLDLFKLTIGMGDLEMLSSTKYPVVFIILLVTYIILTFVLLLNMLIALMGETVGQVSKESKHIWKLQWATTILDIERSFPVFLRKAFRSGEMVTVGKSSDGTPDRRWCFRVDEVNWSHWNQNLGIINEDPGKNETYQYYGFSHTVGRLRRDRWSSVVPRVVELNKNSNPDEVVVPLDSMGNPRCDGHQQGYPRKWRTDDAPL
T3 sequence (Q8NER1 whole entry): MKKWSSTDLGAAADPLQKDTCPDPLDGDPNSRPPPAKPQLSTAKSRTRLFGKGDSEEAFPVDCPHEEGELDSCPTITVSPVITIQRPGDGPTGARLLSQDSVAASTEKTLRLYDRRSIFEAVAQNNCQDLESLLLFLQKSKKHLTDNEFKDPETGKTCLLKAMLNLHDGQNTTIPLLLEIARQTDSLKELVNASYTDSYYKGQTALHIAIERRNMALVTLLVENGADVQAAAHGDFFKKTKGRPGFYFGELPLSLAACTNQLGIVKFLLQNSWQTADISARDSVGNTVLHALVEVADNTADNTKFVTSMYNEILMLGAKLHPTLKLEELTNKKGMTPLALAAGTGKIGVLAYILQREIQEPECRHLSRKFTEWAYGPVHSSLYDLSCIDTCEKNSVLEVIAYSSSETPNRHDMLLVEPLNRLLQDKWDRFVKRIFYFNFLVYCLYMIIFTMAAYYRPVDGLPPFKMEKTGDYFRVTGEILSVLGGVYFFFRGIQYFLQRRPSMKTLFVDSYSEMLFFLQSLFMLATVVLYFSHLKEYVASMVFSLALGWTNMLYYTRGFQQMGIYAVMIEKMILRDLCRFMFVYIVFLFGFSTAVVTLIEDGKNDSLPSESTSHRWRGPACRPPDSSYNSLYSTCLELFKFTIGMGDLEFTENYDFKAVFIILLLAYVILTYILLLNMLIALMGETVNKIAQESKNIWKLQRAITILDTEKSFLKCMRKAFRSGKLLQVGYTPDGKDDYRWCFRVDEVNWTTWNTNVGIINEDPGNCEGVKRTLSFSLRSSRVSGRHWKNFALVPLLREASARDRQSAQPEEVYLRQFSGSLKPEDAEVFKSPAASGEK
T1 sequence (Q7Z2W7 whole entry): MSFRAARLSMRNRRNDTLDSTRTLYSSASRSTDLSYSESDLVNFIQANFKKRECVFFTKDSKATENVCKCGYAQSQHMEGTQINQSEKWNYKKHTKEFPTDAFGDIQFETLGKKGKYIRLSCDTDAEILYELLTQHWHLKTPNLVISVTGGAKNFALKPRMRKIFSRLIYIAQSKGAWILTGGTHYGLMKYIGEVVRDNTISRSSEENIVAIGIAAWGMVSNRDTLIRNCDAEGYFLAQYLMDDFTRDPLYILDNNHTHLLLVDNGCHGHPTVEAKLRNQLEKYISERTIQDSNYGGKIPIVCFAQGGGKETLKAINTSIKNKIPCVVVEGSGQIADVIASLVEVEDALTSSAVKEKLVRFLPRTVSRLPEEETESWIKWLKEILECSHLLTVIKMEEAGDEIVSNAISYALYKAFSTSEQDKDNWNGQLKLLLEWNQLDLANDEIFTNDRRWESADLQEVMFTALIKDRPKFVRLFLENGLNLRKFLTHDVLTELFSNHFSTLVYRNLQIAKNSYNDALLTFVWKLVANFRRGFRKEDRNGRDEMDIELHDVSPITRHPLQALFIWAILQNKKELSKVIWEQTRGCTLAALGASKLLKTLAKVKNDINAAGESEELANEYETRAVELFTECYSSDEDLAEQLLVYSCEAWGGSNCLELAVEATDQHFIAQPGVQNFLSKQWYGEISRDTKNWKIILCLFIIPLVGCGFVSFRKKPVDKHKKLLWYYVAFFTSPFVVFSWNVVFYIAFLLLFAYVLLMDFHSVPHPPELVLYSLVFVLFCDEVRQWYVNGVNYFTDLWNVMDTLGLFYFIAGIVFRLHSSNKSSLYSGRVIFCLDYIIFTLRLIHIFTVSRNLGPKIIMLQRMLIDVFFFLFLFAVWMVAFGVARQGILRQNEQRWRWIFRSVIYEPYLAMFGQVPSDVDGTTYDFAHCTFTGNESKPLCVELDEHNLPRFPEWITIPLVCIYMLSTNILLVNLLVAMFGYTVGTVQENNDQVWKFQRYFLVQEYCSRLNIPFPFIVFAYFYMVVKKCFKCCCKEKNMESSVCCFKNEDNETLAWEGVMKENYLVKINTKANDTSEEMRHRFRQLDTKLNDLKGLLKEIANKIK

On to `CCN1C[C@]2(COC)[C@H](O)C[C@H](OC)[C@@]34[C@@H]5C[C@@]6(O)[C@H](OC(=O)c7ccccc7)[C@@H]5[C@@](O)([C@@H]([C@H](OC)[C@H]23)[C@@H]14)[C@@H](O)[C@@H]6OC` [Benzoylaconitine], for which the “% of Activation Compared to Positive Control against Each Subfamily of TRP Channel TRPM8” value in experiment [1] is on record as 3.6%. Besides, in experiment [2], the “% of Activation Compared to Positive Control against Each Subfamily of TRP Channel TRPV4” value is 0.0%. In addition, the “% of Activation Compared to Positive Control against Each Subfamily of TRP Channel TRPV1” value in experiment [3] is −0.2%. Also, in experiment [4], the “% of Activation Compared to Positive Control against Each Subfamily of TRP Channel TRPA1” value is recorded as 3%.
For the compound `O.Oc1cc(O)c2c(c1)O[C@H](c1ccc(O)c(O)c1)[C@@H](O)C2` [Catechin], the “% of Activation Compared to Positive Control against Each Subfamily of TRP Channel TRPM8” value in experiment [1] is 4.0%. Moreover, the “% of Activation Compared to Positive Control against Each Subfamily of TRP Channel TRPV4” value in experiment [2] came to 0.3%. Further, the “% of Activation Compared to Positive Control against Each Subfamily of TRP Channel TRPV1” value in experiment [3] was −0.3%. For the same compound, in experiment [4], the “% of Activation Compared to Positive Control against Each Subfamily of TRP Channel TRPA1” value came to 6%.
As to `CN[C@@H](C)[C@H](O)c1ccccc1` [Ephedrine, (1R,2S)-(−)-Ephedrine, reference compound], the activation at 10 µM in experiment [1] was 3.2%; in experiment [2] it was -0.4%; in experiment [3], -0.5%; in experiment [4] it was 3%.
The corresponding values for `Oc1cc(O)c2c(c1)O[C@H](c1ccc(O)c(O)c1)[C@H](O)C2` [Epicatechin] are 4.2%, 0.6%, 0% and 6%.
The corresponding values for `Oc1cc(O)c2c(c1)O[C@H](c1cc(O)c(O)c(O)c1)[C@H](O)C2` [Epigallocatechin] are 4.8%, 0.1%, -0.2% and 2%.
In the case of `O=C(O)CNC(=O)c1ccccc1` [Hippuric acid], the activation at 10 µM in experiment [1] was found to be 7.5%; in experiment [2] it was 2.8%; in experiment [3] it was 1%; in experiment [4], 13%.
Consider `C=C1[C@H]2C[C@@H]3[C@H]4N5C[C@@]6(C)[C@H]7[C@@H]5C[C@]3([C@@H]1O)[C@@](O)(C2)[C@]74C[C@@H](OC(=O)c1ccccc1)[C@@H]6O` [Ignavine], for which the “% of Activation Compared to Positive Control against Each Subfamily of TRP Channel TRPM8” value in experiment [1] was 1.8%. In addition, in experiment [2], the “% of Activation Compared to Positive Control against Each Subfamily of TRP Channel TRPV4” value is recorded as −0.1%. Besides, the “% of Activation Compared to Positive Control against Each Subfamily of TRP Channel TRPV1” value in experiment [3] is −0.2%. Besides, in experiment [4], the “% of Activation Compared to Positive Control against Each Subfamily of TRP Channel TRPA1” value is 2%.
With `O=c1cc(-c2ccc(O)cc2)oc2cc(O)c([C@@H]3O[C@H](CO)[C@@H](O)[C@H](O)[C@H]3O)c(O)c12` [Isovitexin], the activation at 10 µM in experiment [1] was determined as 4.3%; in experiment [2], 2.3%; in experiment [3], 0.2%; in experiment [4], 18%.
Consider `CC(C(O)c1ccccc1)[N+](C)(C)[O-]` (centres unmarked) [Methylephedrine N-oxide], for which, in experiment [1], the “% of Activation Compared to Positive Control against Each Subfamily of TRP Channel TRPM8” value worked out at 4.5%. Further, in experiment [2], the “% of Activation Compared to Positive Control against Each Subfamily of TRP Channel TRPV4” value stood at 1.8%. The “% of Activation Compared to Positive Control against Each Subfamily of TRP Channel TRPV1” value in experiment [3] is 0.3%. For the same compound, the “% of Activation Compared to Positive Control against Each Subfamily of TRP Channel TRPA1” value in experiment [4] worked out at 21%.
In the case of `CN[C@@H](C)[C@@H](O)c1ccccc1` [Pseudoephedrine, (S,S)-(+)-pseudoephedrine, reference compound], the activation at 10 µM was 2.8% in experiment [1], -0.3% in experiment [2], -0.2% in experiment [3] and 4% in experiment [4].
As to `O=c1cc(-c2ccc(O)cc2)oc2c([C@@H]3O[C@H](CO)[C@@H](O)[C@H](O)[C@H]3O)c(O)c([C@@H]3O[C@H](CO)[C@@H](O)[C@H](O)[C@H]3O)c(O)c12` [Vicenin-2], the “% of Activation Compared to Positive Control against Each Subfamily of TRP Channel TRPM8” value in experiment [1] was 6.5%. For the same compound, the “% of Activation Compared to Positive Control against Each Subfamily of TRP Channel TRPV4” value in experiment [2] is listed as 5.0%. Also, the “% of Activation Compared to Positive Control against Each Subfamily of TRP Channel TRPV1” value in experiment [3] is on record as 1.8%. Further, the “% of Activation Compared to Positive Control against Each Subfamily of TRP Channel TRPA1” value in experiment [4] worked out at 25%.
